Data reported in PMC6206036, “Locking loop movement in the ubiquinone pocket of complex I disengages the proton pumps” (Nature Communications, 2018).
Read-outs that look alike come from different tables or passages of the source.

What was measured:
[1] = target: T1, Complex I (proton-pumping NADH:ubiquinone oxidoreductase) (Yarrowia lipolytica, UniProt Q9B6C7+Q9B6E8+Q9UUT7+Q9UUU1); assay: inhibition of dNADH:DBQ oxidoreductase activity, mitochondrial membranes; assay type: biochemical
T1 construct: gene nucm; native complete respiratory complex I in unsealed mitochondrial membranes; nugm-Htg2 (tagged NUGM) strain background; NUKM expressed from replicative plasmid pUB4 under endogenous promoter; 14 central plus accessory subunits; with NADH-ubiquinone oxidoreductase 51 kDa subunit, mitochondrial
Source text: inhibition of dNADH:DBQ oxidoreductase activity, mitochondrial membranes on Complex I (proton-pumping NADH:ubiquinone oxidoreductase)

[2] = target: T1, Complex I (proton-pumping NADH:ubiquinone oxidoreductase); assay: dNADH:DBQ oxidoreductase activity at […] nm, mitochondrial membranes; assay type: biochemical; settings: 100 µM dNADH, DBQ 0-100 µM, pH 8.5, 25 °C; membranes preincubated with 5 mM DTT for 5 min (ND3-PSST disulfide reduced); read-out: K M ^d /
[3] = substrate: CCCCCCCCCCC1=C(C)C(=O)C(OC)=C(OC)C1=O; assay: cells, lysate or membranes; assay type: biochemical, Yarrowia lipolytica; settings: 100 µM dNADH, DBQ 0-100 µM, pH 8.5, 25 °C, membranes preincubated with 5 mM DTT for 5 min

CCCCCCCCCCc1nc(N)c2ccccc2n1 [DQA, 2-n-decyl-quinazolin-4-yl-amine]
IC50 ([1]; 100 µM dNADH, 100 µM DBQ, pH 8.5, 25 °C, membranes preincubated with 5 mM DTT for 5 min (ND3-PSST disulfide reduced)): 13 ± 3 nM | IC50 ([1]; 100 µM dNADH, 100 µM DBQ, pH 8.5, 25 °C, membranes preincubated with 5 mM DTT for 5 min, read-out: IC50^e / DQA /): 16 ± 3 nM

CCCCCCCCCCC1=C(C)C(=O)C(OC)=C(OC)C1=O [DBQ, decylubiquinone]
Km [2]: 19 ± 3 µM

C=C(C)[C@H]1Cc2c(ccc3c2O[C@@H]2COc4cc(OC)c(OC)cc4[C@@H]2C3=O)O1 [rotenone]
IC50 ([1]; read-out: IC50^e / Rotenone /): 560 ± 55 nM

B1: Complex I (proton-pumping NADH:ubiquinone oxidoreductase) (Yarrowia lipolytica CLIB122) (protein)
chain 1: MATTALPQDPIPSGALGQKVPHVDESHQDLLFRTSHMVEDLETYDEDSPINTSDANTRIRAFTINFGPQHPAAHGVLRLILELSGEEIIRSDPHVGLLHRGTEKLIEYKTYMQALPYFDRLDYVSMMTNEQVFSLAVEKLLNVEVPLRGKYIRTMFGEITRVLNHLMSVCSHAMDVGALTPFLWGFEEREKLMEFYERVSGARLHAAYVRPGGVSQDLPAGLLDDIYMWATQFGDRLDEIEELLTDNRIWKLRTVNIGTVTAQDALNLGLSGPMLRGSGIPFDIRKNAPYDAYDKVDFDVPVGMNGDCYDRYLIRMAEFRQSLRIIEQCCNDMPAGAVKVEDFKINSPPRNLMKEDMEALIHHFLLYTKGYSVPPGETYTAIEAPKGEMGVYVVSDGSERPYKCKIRAPGFAHLGAFDHIARGHFLPDAVAIIGTMDLVFGEVDR
chain 2: SAPAGTPRVSSSSMPTDFPLPSQQKPNSAVDYTLTTLDAVANWARQGSFWPVTFGLACCAVEMMHVSAPRYDQDRLGIIFRASPRQSDIMIVAGTLTNKMAPVLRQVYDQMPEPRWVISMGSCANGGGYYHFSYSVVRGCDRIVPVDVYVPGCPPTSEALMYGVFQLQRKMRNTKITRMWYRK
chain 3: MIINIVEILIFLVCVLFSVAYLTVAERKTLAYMQRRLGPNFVGYYGLLQAFADAVKLLLKEIVLPKESNYIILVISPLITLITALIGWVVIPLGPGITLGELNLGILFSLAIGSLGVFGSLLSGWSSNSKYSLLGSIRSTAQLISYELILTSIFIIIIMFVSSLNITTIIETQRVVWYCIPLLPLLLIFFIASVAETARPPFDLTESESELVAGYFTEYSGSPFVFFFLAEYSNIILISAFNGYLLLGGYLSFNYSYLFNILFNDYSYVSFLFEGLINSSAYAIKLVFLMFSFIWVRAAFPRFTYDNLINFCWIILLPLLFGIFLIIPSTLYIFDSFPTLI
chain 4: MNTFIIFIILIPIVGFALLAVNILLAVYKPYNEKLGAFECGLTSFNQTRLAFNAAFILVAILFLPFDLEISTLLPYVMSIYLVSNYGFTIVLLFLLILIIGFVYEINTNALKINKHNKPNTDSLIYKL
notes: native complete respiratory complex I in unsealed mitochondrial membranes; nugm-Htg2 (tagged NUGM) strain background; NUKM expressed from replicative plasmid pUB4 under endogenous promoter; 14 central plus accessory subunits; with NADH-ubiquinone oxidoreductase 51 kDa subunit, mitochondrial
Km [3]: 17 ± 3 µM | Vmax [3]: 0.16 µmol/min/mg
